Data taken from PubChem BioAssay AID1745844 (Carcinogenic Potency Database (CPDB), 2022).
Several values for one entry are separate records, joined by “and”; a condition that tells them apart may be missing. Equal values may be shown once. Activity calls are given as the source filed them. The rule behind the calls is not given here.

System: rodent lifetime carcinogenesis bioassay, tumor incidence TD50
Assay: carcinogenic potency in animals, long-term in vivo studies, CPDB compilation (AID 1745844)

Molecule C=C1C(C)(C)[C@@]2(Cl)C(Cl)[C@]1(Cl)C(Cl)(Cl)C2(Cl)Cl (some centres not stated) has a TD50 (mouse, strain B6AKF1, males, oral dosing, site: any site (literature study), lesion: several types, types named in the paper, dosed 79 weeks, study length 79 weeks) of 0.75 mg/kg/day, a TD50 (mouse, strain B6AKF1, males, oral dosing, site: liver, lesion: hepatoma, dosed 79 weeks, study length 79 weeks) of 0.644 mg/kg/day and a TD50 (mouse, strain B6C3F1, females, oral dosing, site: any site (literature study), lesion: several types, types named in the paper, dosed 79 weeks, study length 79 weeks) of 3.37 mg/kg/day. The TD50 (mouse, strain B6C3F1, females, oral dosing, site: lung, lesion: adenoma, dosed 79 weeks, study length 79 weeks) was 10.7 mg/kg/day, the TD50 (mouse, strain B6C3F1, males, oral dosing, site: all sites, lesion: reticulum-cell sarcoma, dosed 79 weeks, study length 79 weeks) was 1.41 mg/kg/day and the TD50 (mouse, strain B6C3F1, males, oral dosing, site: any site (literature study), lesion: several types, types named in the paper, dosed 79 weeks, study length 79 weeks) was 0.75 mg/kg/day. It also gave a TD50 (mouse, strain B6C3F1, males, oral dosing, site: liver, lesion: hepatoma, dosed 79 weeks, study length 79 weeks) of 4 mg/kg/day and a TD50 (mouse, strain B6C3F1, males, oral dosing, site: lung, lesion: adenoma, dosed 79 weeks, study length 79 weeks) of 8.29 mg/kg/day.

Work on COC(=O)C1=CCCN(N=O)C1 yielded a TD50 (rat, strain Fischer 344, males, in drinking water, site: pancreas, exocrine, lesion: acinar-cell adenoma, dosed 128 weeks, study length 128 weeks) of 7.95 mg/kg/day.

In the case of Cc1cc(O)cc(C)c1N(C)C, the TD50 (mouse, strain B6AKF1, females, oral dosing, site: any site (literature study), lesion: several types, types named in the paper, dosed 76 weeks, study length 76 weeks) is reported as 220 mg/kg/day (inactive), the carcinogen call (mouse, strain B6AKF1, females, oral dosing, site: liver, lesion: hepatoma, dosed 76 weeks, study length 76 weeks) is reported as “negative (inactive)” and the carcinogen call (mouse, strain B6AKF1, females, oral dosing, site: lung, lesion: adenoma, dosed 76 weeks, study length 76 weeks) is reported as “negative (inactive)”. For the same molecule, the TD50 (mouse, strain B6AKF1, males, oral dosing, site: any site (literature study), lesion: several types, types named in the paper, dosed 76 weeks, study length 76 weeks) was 1190 mg/kg/day (inactive), the TD50 (mouse, strain B6AKF1, males, oral dosing, site: liver, lesion: hepatoma, dosed 76 weeks, study length 76 weeks) was 207 mg/kg/day (inactive) and the carcinogen call (mouse, strain B6AKF1, males, oral dosing, site: lung, lesion: adenoma, dosed 76 weeks, study length 76 weeks) was “negative (inactive)”. For the same molecule, the TD50 (mouse, strain B6C3F1, females, oral dosing, site: any site (literature study), lesion: several types, types named in the paper, dosed 76 weeks, study length 76 weeks) was 265 mg/kg/day (inactive), the carcinogen call (mouse, strain B6C3F1, females, oral dosing, site: liver, lesion: hepatoma, dosed 76 weeks, study length 76 weeks) was “negative (inactive)” and the TD50 (mouse, strain B6C3F1, females, oral dosing, site: lung, lesion: adenoma, dosed 76 weeks, study length 76 weeks) was 265 mg/kg/day (inactive). For the same molecule, the TD50 (mouse, strain B6C3F1, males, oral dosing, site: any site (literature study), lesion: several types, types named in the paper, dosed 76 weeks, study length 76 weeks) was 34.8 mg/kg/day (inactive), the TD50 (mouse, strain B6C3F1, males, oral dosing, site: liver, lesion: hepatoma, dosed 76 weeks, study length 76 weeks) was 247 mg/kg/day (inactive) and the TD50 (mouse, strain B6C3F1, males, oral dosing, site: lung, lesion: adenoma, dosed 76 weeks, study length 76 weeks) was 56.1 mg/kg/day (inactive).

With Cc1ccc2ncccc2c1 the TD50 (rat, strain Fischer 344, females, in feed, site: liver, lesion: hyperplastic nodule, dosed 104 weeks, study length 104 weeks) was 230 mg/kg/day (inactive) and the TD50 (rat, strain Fischer 344, males, in feed, site: liver, lesion: hyperplastic nodule, dosed 104 weeks, study length 104 weeks) was 123 mg/kg/day (inactive).

For ClC(Cl)=C(Cl)C(Cl)=C(Cl)Cl, the TD50 (rat, strain Sprague-Dawley Spartan, females, in feed, site: any site (literature study), lesion: several types, types named in the paper, dosed 104 weeks, study length 104 weeks) was 9.84 mg/kg/day, the TD50 (rat, strain Sprague-Dawley Spartan, females, in feed, site: kidney, lesion: several types, types named in the paper, dosed 104 weeks, study length 104 weeks) was 94.4 mg/kg/day and the carcinogen call (rat, strain Sprague-Dawley Spartan, females, in feed, site: liver, lesion: hepatocellular tumor, malignant, dosed 104 weeks, study length 104 weeks) was “negative (inactive)”. For the same molecule, the TD50 (rat, strain Sprague-Dawley Spartan, males, in feed, site: kidney, lesion: several types, types named in the paper, dosed 95 weeks, study length 95 weeks) was 50.5 mg/kg/day and the carcinogen call (rat, strain Sprague-Dawley Spartan, males, in feed, site: liver, lesion: hepatocellular carcinoma, dosed 95 weeks, study length 95 weeks) was “negative (inactive)”.

For CC(C)CN(N=O)C(=N)N[N+](=O)[O-], the carcinogen call (rat, strain Wistar, males, in drinking water, site: stomach, glandular, lesion: one or several types, types not named, dosed 52 weeks, study length 78 weeks) was “negative (inactive)”.

Molecule Cc1ccccc1OCC(O)CNCCn1cc(C)c(=O)[nH]c1=O (configuration not stated) has a TD50 (mouse, strain Charles River CD1, females, in feed, site: any site (literature study), lesion: several types, types named in the paper, dosed 78 weeks, study length 78 weeks) of 52.3 mg/kg/day, a TD50 (mouse, strain Charles River CD1, females, in feed, site: liver, lesion: hepatocellular carcinoma, dosed 78 weeks, study length 78 weeks) of 1670 mg/kg/day and a TD50 (mouse, strain Charles River CD1, females, in feed, site: lung, lesion: adenocarcinoma, dosed 78 weeks, study length 78 weeks) of 1670 mg/kg/day. The TD50 (mouse, strain Charles River CD1, females, in feed, site: lung, lesion: adenoma, dosed 78 weeks, study length 78 weeks) was 449 mg/kg/day and the TD50 (mouse, strain Charles River CD1, males, in feed, site: liver, lesion: hepatocellular carcinoma, dosed 78 weeks, study length 78 weeks) was 935 mg/kg/day.

For Cc1cc(C)nc(-c2ccc([N+](=O)[O-])o2)n1, the carcinogen call (rat, strain Sprague-Dawley, females, in feed, site: forestomach, lesion: squamous-cell carcinoma, dosed 42 weeks, study length 59 weeks) was “positive”, the TD50 (rat, strain Sprague-Dawley, females, in feed, site: intestine, lesion: hemangioendothelial sarcoma, dosed 42 weeks, study length 59 weeks) was 3.43 mg/kg/day and the TD50 (rat, strain Sprague-Dawley, females, in feed, site: intestine, lesion: sarcoma, dosed 42 weeks, study length 59 weeks) was 2.61 mg/kg/day. For the same molecule, the TD50 (rat, strain Sprague-Dawley, females, in feed, site: kidney, lesion: transitional-cell carcinoma, dosed 42 weeks, study length 59 weeks) was 45.5 mg/kg/day and the TD50 (rat, strain Sprague-Dawley, females, in feed, site: mammary gland, lesion: adenocarcinoma, dosed 42 weeks, study length 59 weeks) was 6.45 mg/kg/day.

For Nc1nc(N)c2nc(-c3ccccc3)c(N)nc2n1, the TD50 (mouse, strain B6C3F1, females, in feed, site: any site (literature study), lesion: several types, types named in the paper, dosed 104 weeks, study length 104 weeks) was 132 mg/kg/day and 64.4 mg/kg/day, the TD50 (mouse, strain B6C3F1, females, in feed, site: liver, lesion: hepatocellular adenoma + hepatoblastoma + hepatocellular carcinoma, dosed 104 weeks, study length 104 weeks) was 51.3 mg/kg/day and 45.3 mg/kg/day and the TD50 (mouse, strain B6C3F1, females, in feed, site: liver, lesion: hepatocellular adenoma + hepatocellular carcinoma, dosed 104 weeks, study length 104 weeks) was 51.3 mg/kg/day and 45.3 mg/kg/day. The TD50 (mouse, strain B6C3F1, females, in feed, site: liver, lesion: hepatocellular adenoma, dosed 104 weeks, study length 104 weeks) was 46 mg/kg/day and 45.7 mg/kg/day, the TD50 (mouse, strain B6C3F1, males, in feed, site: Harderian gland, lesion: adenoma, dosed 104 weeks, study length 104 weeks) was 235 mg/kg/day and the TD50 (mouse, strain B6C3F1, males, in feed, site: any site (literature study), lesion: several types, types named in the paper, dosed 104 weeks, study length 104 weeks) was 205 mg/kg/day and 86.7 mg/kg/day. The TD50 (mouse, strain B6C3F1, males, in feed, site: liver, lesion: hepatocellular adenoma + hepatoblastoma + hepatocellular carcinoma, dosed 104 weeks, study length 104 weeks) was 169 mg/kg/day and 61.2 mg/kg/day, the TD50 (mouse, strain B6C3F1, males, in feed, site: liver, lesion: hepatocellular adenoma + hepatocellular carcinoma, dosed 104 weeks, study length 104 weeks) was 162 mg/kg/day and 61.2 mg/kg/day and the TD50 (mouse, strain B6C3F1, males, in feed, site: liver, lesion: hepatocellular adenoma, dosed 104 weeks, study length 104 weeks) was 54.8 mg/kg/day. The TD50 (mouse, strain B6C3F1, males, in feed, site: liver, lesion: hepatocellular carcinoma, dosed 104 weeks, study length 104 weeks) was 227 mg/kg/day, the TD50 (mouse, strain B6C3F1, males, in feed, site: lung, lesion: alveolar/bronchiolar adenoma + alveolar/bronchiolar carcinoma, dosed 104 weeks, study length 104 weeks) was 233 mg/kg/day and 265 mg/kg/day and the carcinogen call (rat, strain Fischer 344, females, in feed, site: any site (literature study), lesion: several types, types named in the paper, dosed 104 weeks, study length 104 weeks) was “negative (inactive)”. For the same molecule, the TD50 (rat, strain Fischer 344, females, in feed, site: liver, lesion: hepatocellular adenoma + hepatoblastoma + hepatocellular carcinoma, dosed 104 weeks, study length 104 weeks) was 520 mg/kg/day, the TD50 (rat, strain Fischer 344, males, in feed, site: liver, lesion: hepatocellular adenoma + hepatoblastoma + hepatocellular carcinoma, dosed 104 weeks, study length 104 weeks) was 11.8 mg/kg/day and the TD50 (rat, strain Fischer 344, males, in feed, site: liver, lesion: hepatocellular adenoma, dosed 104 weeks, study length 104 weeks) was 11.8 mg/kg/day.

With [Ge+4].[Na+].[Na+].[O-2].[O-2].[O-2] the carcinogen call (mouse, strain Charles River CD1, both sexes, in drinking water, site: any site (literature study), lesion: benign tumor, dosed 104 weeks, study length 104 weeks) was “negative (inactive)”, the carcinogen call (mouse, strain Charles River CD1, both sexes, in drinking water, site: any site (literature study), lesion: malignant tumor, dosed 104 weeks, study length 104 weeks) was “negative (inactive)” and the carcinogen call (mouse, strain Charles River CD1, both sexes, in drinking water, site: any site (literature study), lesion: several types, types named in the paper, dosed 104 weeks, study length 104 weeks) was “negative (inactive)”. For the same molecule, the carcinogen call (mouse, strain Charles River CD1, both sexes, in drinking water, site: liver, lesion: several types, types named in the paper, dosed 104 weeks, study length 104 weeks) was “negative (inactive)”, the carcinogen call (mouse, strain Charles River CD1, both sexes, in drinking water, site: lung, lesion: several types, types named in the paper, dosed 104 weeks, study length 104 weeks) was “negative (inactive)” and the carcinogen call (rat, strain Long-Evans BLU:(LE), both sexes, in drinking water, site: any site (literature study), lesion: malignant tumor, dosed 149 weeks, study length 149 weeks) was “negative (inactive)”. For the same molecule, the carcinogen call (rat, strain Long-Evans BLU:(LE), both sexes, in drinking water, site: any site (literature study), lesion: one or several types, types not named, dosed 149 weeks, study length 149 weeks) was “negative (inactive)” and the carcinogen call (rat, strain Long-Evans BLU:(LE), both sexes, in drinking water, site: liver, lesion: one or several types, types not named, dosed 149 weeks, study length 149 weeks) was “negative (inactive)”.

In the case of CC(C)O, the carcinogen call (mouse, strain Charles River CD1, females, inhaled, site: kidney, lesion: one or several types, types not named, dosed 54 weeks, study length 54 weeks) is reported as “negative (inactive)”, the carcinogen call (mouse, strain Charles River CD1, females, inhaled, site: kidney, lesion: one or several types, types not named, dosed 78 weeks, study length 78 weeks) is reported as “negative (inactive)” and the carcinogen call (mouse, strain Charles River CD1, males, inhaled, site: kidney, lesion: one or several types, types not named, dosed 54 weeks, study length 54 weeks) is reported as “negative (inactive)”. For the same molecule, the carcinogen call (mouse, strain Charles River CD1, males, inhaled, site: kidney, lesion: one or several types, types not named, dosed 78 weeks, study length 78 weeks) was “negative (inactive)”, the carcinogen call (rat, strain Fischer 344, females, inhaled, site: kidney, lesion: one or several types, types not named, dosed 72 weeks, study length 73 weeks) was “negative (inactive)” and the carcinogen call (rat, strain Fischer 344, females, inhaled, site: kidney, lesion: one or several types, types not named, dosed 104 weeks, study length 104 weeks) was “negative (inactive)”. For the same molecule, the carcinogen call (rat, strain Fischer 344, males, inhaled, site: kidney, lesion: one or several types, types not named, dosed 72 weeks, study length 73 weeks) was “negative (inactive)”, the carcinogen call (rat, strain Fischer 344, males, inhaled, site: kidney, lesion: one or several types, types not named, dosed 102 weeks, study length 104 weeks) was “negative (inactive)” and the TD50 (rat, strain Fischer 344, males, inhaled, site: testis, lesion: interstitial-cell adenoma, dosed 72 weeks, study length 73 weeks) was 456 mg/kg/day (inactive). For the same molecule, the TD50 (rat, strain Fischer 344, males, inhaled, site: testis, lesion: interstitial-cell adenoma, dosed 102 weeks, study length 104 weeks) was 46.4 mg/kg/day (inactive).
